Measurements reported in paper PMC11203424, “Comparative Analysis of Orthosteric and Allosteric GLP-1R Agonists’ Effects on Insulin Secretion from Healthy, Diabetic, and Recovered INS-1E Pancreatic Beta Cells” (International Journal of Molecular Sciences, 2024).

How the values were obtained:
INS-1E cells [1] = assay: GSIS with cAMP-elevating chemicals, insulin ELISA; type: cell-based, Rat; conditions: IBMX (10 μM), forskolin (0.5 mM), 15 mM glucose, n = 3; for augmentation of GSIS versus allosteric agonists: up to 12 h, p > 0.05
Description: Figure 9 Assessing the time-dependent effects of GLP-1R agonists and cAMP-elevating chemicals (IBMX and forskolin) on GSIS and GSICP in healthy, diabetic, and recovered INS-1E cells. […] Samples were analyzed using insulin (a) and cAMP (b) ELISAs. Data expressed as mean ± SEM, n = 3. […] No symbol on the bars indicates non-significance (p > 0.05) in comparison to the no agonist control at that time point. […] The cells were maintained in sterile 10 cm^2 tissue culture Petri dishes (Greiner Bio-one, Stonehouse, UK) by changing the FSM every 3–4 days and sub-culturing when they reached 100% confluency. Diabetic and recovered INS-1E cells were generated using a previously described method with some changes. […] To produce ‘recovered’ cells, the healthy cells were cultured initially in FSM containing 40 mM glucose (diabetic condition) for 4 weeks and then in FSM containing 11 mM glucose for 4 weeks. For all the following assays, INS-1E cells (100,000 cells/well) were plated in a 96-well plate in FSM and incubated for 24 h in a humid incubator at 37 °C and 5% CO2 for the cells to attach and reach >80% confluency. Unless otherwise specified, all incubations of the cells in the following assays were carried out in a humid incubator at 37 °C and 5% CO2, and all of the ELISAs were carried out at room temperature (RT). The insulin secreted by INS-1E cells during the treatments was measured using an insulin ELISA. INS-1E cells (100,000 cells/well) were plated in a 96-well plate in FSM. […] The cells were then incubated in the KRH buffer containing the specified concentration of glucose without or with the specified concentration of GLP-1R agonist(s) for the desired time. After cessation of the cell treatments, the media were clarified via centrifugation at 22,000× g for 5 min and then diluted 1 in 25 in dilution buffer (0.5% fish gelatin made in PBST [PBS with 0.05% tween-20]) and used for the insulin ELISA. The sample preparation for measuring the intracellular insulin contents of the INS-1E cells via the insulin ELISA was as follows. After cessation of the treatments, the cells were lysed in 150 μL of 0.1 M HCl. The cell lysates were centrifuged at 22,000× g for 5 min, then the supernatant was diluted 1 in 1000 in dilution buffer to use as the samples for the insulin ELISA. For the ELISA, the wells of 96-well plate inserts were coated with 50 μL of 3 μg/mL captured antibody (Novus Biologicals, Abingdon, UK) diluted in PBS for 2 h at 37 °C and then washed four times with PBST. […] The reaction was stopped by adding an equal volume of 2M sulfuric acid, then its optical density was read at 450 nm (OD450) using a plate reader. Using known insulin standards (Abcam, Cambridge, UK), the insulin concentrations of samples were determined.

INS-1E cells [2] = assay: Intracellular cAMP (GSICP) with cAMP-elevating chemicals, cAMP ELISA; type: cell-based, Rat; conditions: IBMX (10 μM), forskolin (0.5 mM), 15 mM glucose, n = 3; for intracellular cAMP (GSICP) versus allosteric agonists: up to 12 h, p > 0.05
Description: Figure 9 Assessing the time-dependent effects of GLP-1R agonists and cAMP-elevating chemicals (IBMX and forskolin) on GSIS and GSICP in healthy, diabetic, and recovered INS-1E cells. […] Samples were analyzed using insulin (a) and cAMP (b) ELISAs. Data expressed as mean ± SEM, n = 3. […] No symbol on the bars indicates non-significance (p > 0.05) in comparison to the no agonist control at that time point. […] The cells were maintained in sterile 10 cm^2 tissue culture Petri dishes (Greiner Bio-one, Stonehouse, UK) by changing the FSM every 3–4 days and sub-culturing when they reached 100% confluency. Diabetic and recovered INS-1E cells were generated using a previously described method with some changes. […] To produce ‘recovered’ cells, the healthy cells were cultured initially in FSM containing 40 mM glucose (diabetic condition) for 4 weeks and then in FSM containing 11 mM glucose for 4 weeks. For all the following assays, INS-1E cells (100,000 cells/well) were plated in a 96-well plate in FSM and incubated for 24 h in a humid incubator at 37 °C and 5% CO2 for the cells to attach and reach >80% confluency. Unless otherwise specified, all incubations of the cells in the following assays were carried out in a humid incubator at 37 °C and 5% CO2, and all of the ELISAs were carried out at room temperature (RT). The intracellular cAMP contents of the INS-1E cells during the treatments was measured using a cAMP ELISA. INS-1E cells (100,000 cells/well) were plated in a 96-well plate in FSM. After 24 h, the cells were pre-incubated with KRH buffer containing 0.5% fish gelatin for 1 h, washed twice with KRH and then incubated for 1 h with KRH to reduce basal cAMP levels. The cells were incubated in the KRH buffer containing various concentrations of glucose without or with different concentrations of GLP-1R agonists for the desired time. The cells were then lysed in 150 μL of 0.1M HCl by incubating at RT for 20 min, and then the cell lysates were centrifuged at 16,000× g for 10 min. A total of 12 μL of the supernatant was neutralized with 6 μL of 0.2M NaOH, diluted to 120 μL with TBS containing 0.05% Tween-20 (TBST), and used in the cAMP ELISA. For the ELISA, an anti-rabbit antibody (Genscript, Oxford, UK) diluted to 10 μg/mL in 100 mM NaHCO3 buffer (pH 9.6) was used to coat the wells (50 μL per well) of a 96-well plate overnight at 4 °C. The coated wells were washed twice with TBST and blocked with blocking buffer (TBST containing 0.5% fatty acid-free BSA) for 1 h. Samples of 50 μL were then added individually in duplicate to the antibody-coated wells. […] The reaction was stopped after 5 min with 50 μL of 2M sulfuric acid, then its optical density was read at 450 nm (OD450) using a plate reader. Using known cAMP standards, the cAMP contents of the samples were determined.

[3] = system: dipeptidyl peptidase (DPP)-IV; conditions: cited from earlier work
Source text: Type 2 diabetes (T2D), which is a multifactorial metabolic disease that is largely characterized by impaired insulin secretion and action, has become a global pandemic in recent decades. Despite the availability of various treatments, T2D post-diagnosis complications such as cardiovascular disease (CVD) remain prevalent, and finding long-term stable treatment regimes for patients can be challenging. Therefore, novel therapeutic strategies, which alleviate the pathology associated with T2D more effectively than current treatments, are highly desirable. Th ...

GLP-1R [4] = biological target: T1, GLP-1R (Rattus norvegicus, UniProt P32301); assay: Glucose-stimulated insulin secretion (GSIS), insulin ELISA, INS-1E cells; type: cell-based; conditions: 10 μM, 15 mM glucose, n = 3
T1 construct: Rat INS-1E cells were cultured in RPMI-1640 containing 11 mM glucose; endogenous in cells; host or cells: INS-1E rat pancreatic beta cell line (healthy, diabetic and recovered states)
T1 sequence (P32301 22-463): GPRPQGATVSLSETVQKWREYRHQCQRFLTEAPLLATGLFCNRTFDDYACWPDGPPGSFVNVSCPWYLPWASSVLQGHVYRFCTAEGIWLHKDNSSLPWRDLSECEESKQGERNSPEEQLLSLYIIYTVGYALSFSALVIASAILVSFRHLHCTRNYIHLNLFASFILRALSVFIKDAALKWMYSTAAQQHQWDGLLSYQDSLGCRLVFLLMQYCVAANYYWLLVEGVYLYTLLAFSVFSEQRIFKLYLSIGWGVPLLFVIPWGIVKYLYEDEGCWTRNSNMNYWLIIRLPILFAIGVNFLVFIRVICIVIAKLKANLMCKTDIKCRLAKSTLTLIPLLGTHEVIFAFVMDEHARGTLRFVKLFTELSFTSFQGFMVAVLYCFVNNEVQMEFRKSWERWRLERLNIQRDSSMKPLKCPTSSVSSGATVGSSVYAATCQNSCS
Description: The cells were maintained in sterile 10 cm^2 tissue culture Petri dishes (Greiner Bio-one, Stonehouse, UK) by changing the FSM every 3–4 days and sub-culturing when they reached 100% confluency. Diabetic and recovered INS-1E cells were generated using a previously described method with some changes [41]. To produce ‘diabetic’ INS-1E cells, when healthy INS-1E cells reached >80% confluency, they were maintained in FSM containing high glucose (40 mM) for 4 weeks by changing the medium with high glucose every 3–4 days. To produce ‘recovered’ cells, the healthy cells were cultured initially in FSM containing 40 mM glucose (diabetic condition) for 4 weeks and then in FSM containing 11 mM glucose for 4 weeks. […] Unless otherwise specified, all incubations of the cells in the following assays were carried out in a humid incubator at 37 °C and 5% CO2, and all of the ELISAs were carried out at room temperature (RT).
For the ELISA, the wells of 96-well plate inserts were coated with 50 μL of 3 μg/mL captured antibody (Novus Biologicals, Abingdon, UK) diluted in PBS for 2 h at 37 °C and then washed four times with PBST. The antibody-coated wells were then blocked for 1 h with 150 μL of blocking buffer (5% fish gelatin made in PBST). Samples of 50 μL of samples were added to the capture antibody-coated wells in duplicate and incubated overnight at 4 °C. The wells were then washed five times with PBST and incubated with 50 μL of HRP-conjugated detection antibody (Abcam; diluted 1/10,000 in dilution buffer) for 2 h. The wells were washed again five times with PBST and incubated with 50 μL of Ultra TMB substrate (Thermo Fisher Scientific, Loughborough, UK) for 5 min. The reaction was stopped by adding an equal volume of 2M sulfuric acid, then its optical density was read at 450 nm (OD450) using a plate reader. Using known insulin standards (Abcam, Cambridge, UK), the insulin concentrations of samples were determined.

GLP-1R [5] = system: GLP-1R; parameters: method as in PMID 27630114, doi:10.4172/2161-1459.1000138, PMID 27138453, PMID 27100083, PMID 25449603; conditions: cited from earlier work
Source text: The activation of the Gαs subunit of heterotrimeric G-protein raises intracellular cAMP levels via adenylyl cyclase (AC) activation, whereas the activation of the Gαq subunit increases intracellular calcium (iCa^2+) levels and extracellular signal-regulated kinase (ERK) phosphorylation, which promotes GLP-1R internalization. The internalization of GLP-1R is associate ...

GLP-1R [6] = biological target: T1, GLP-1R; assay: Glucose-stimulated intracellular cAMP production (GSICP), cAMP ELISA, INS-1E cells; type: cell-based; conditions: diabetic INS-1E; 1 and 2 h, in some instances; 10 μM; n = 3
Description: The cells were maintained in sterile 10 cm^2 tissue culture Petri dishes (Greiner Bio-one, Stonehouse, UK) by changing the FSM every 3–4 days and sub-culturing when they reached 100% confluency. Diabetic and recovered INS-1E cells were generated using a previously described method with some changes [41]. To produce ‘diabetic’ INS-1E cells, when healthy INS-1E cells reached >80% confluency, they were maintained in FSM containing high glucose (40 mM) for 4 weeks by changing the medium with high glucose every 3–4 days. To produce ‘recovered’ cells, the healthy cells were cultured initially in FSM containing 40 mM glucose (diabetic condition) for 4 weeks and then in FSM containing 11 mM glucose for 4 weeks. […]
The intracellular cAMP contents of the INS-1E cells during the treatments was measured using a cAMP ELISA. […]
For the ELISA, an anti-rabbit antibody (Genscript, Oxford, UK) diluted to 10 μg/mL in 100 mM NaHCO3 buffer (pH 9.6) was used to coat the wells (50 μL per well) of a 96-well plate overnight at 4 °C. […] The reaction was stopped after 5 min with 50 μL of 2M sulfuric acid, then its optical density was read at 450 nm (OD450) using a plate reader. Using known cAMP standards, the cAMP contents of the samples were determined.

human islets = system: human islets; parameters: method as in PMID 20823098; conditions: human islets isolated from a donor with T2D; cited from earlier work

Row | Molecule | time after which augmentation of GSIS was lost (INS-1E cells [1]) | augmentation of GSIS versus allosteric agonists (INS-1E cells [1]) | time after which augmentation of GSICP was lost (INS-1E cells [2]) | intracellular cAMP (GSICP) versus allosteric agonists (INS-1E cells [2]) | GSIS at 48 h, 72 h and 96 h (GLP-1R [4]; diabetic INS-1E) | GSIS at 48 h, 72 h and 96 h (GLP-1R [4]; healthy and recovered INS-1E) | also measured
1 | C=C[C@@]1(C)CC(=O)[C@]2(O)[C@@]3(C)[C@@H](O)CCC(C)(C)[C@@H]3[C@H](O)[C@H](OC(C)=O)[C@@]2(C)O1 [forskolin] | 12 h | augmented GSIS to similar levels | 12 h | raised intracellular cAMP levels |  |  | 
2 | CCCCCCCCCCCCCCCC(=O)N[C@@H](CCC(=O)NCCCC[C@H](NC(=O)[C@H](C)NC(=O)[C@H](C)NC(=O)[C@H](CCC(N)=O)NC(=O)CNC(=O)[C@H](CCC(=O)O)NC(=O)[C@H](CC(C)C)NC(=O)[C@H](Cc1ccc(O)cc1)NC(=O)[C@H](CO)NC(=O)[C@H](CO)NC(=O)[C@@H](NC(=O)[C@H](CC(=O)O)NC(=O)[C@H](CO)NC(=O)[C@@H](NC(=O)[C@H](Cc1ccccc1)NC(=O)[C@@H](NC(=O)CNC(=O)[C@H](CCC(=O)O)NC(=O)[C@H](C)NC(=O)[C@@H](N)Cc1cnc[nH]1)[C@@H](C)O)[C@@H](C)O)C(C)C)C(=O)N[C@@H](CCC(=O)O)C(=O)N[C@@H](Cc1ccccc1)C(=O)N[C@H](C(=O)N[C@@H](C)C(=O)N[C@@H](Cc1c[nH]c2ccccc12)C(=O)N[C@@H](CC(C)C)C(=O)N[C@H](C(=O)N[C@@H](CCCNC(=N)N)C(=O)NCC(=O)N[C@@H](CCCNC(=N)N)C(=O)NCC(=O)O)C(C)C)[C@@H](C)CC)C(=O)O [Liraglutide] |  |  |  |  |  |  | resistance to DPP-IV [3]: resistant to breakdown by DPP-IV
3 | CC(C)(C)Nc1nc2cc(Cl)c(Cl)cc2nc1S(C)(=O)=O [Compound 2, 6,7-dichloro-2-methylsulfonyl-3-N-tert-butylaminoquinoxaline] |  |  |  |  | significantly boosted GSIS | slightly increased GSIS | 
4 | CC(C)Cn1c(=O)n(C)c(=O)c2[nH]cnc21 [IBMX, Isobutylmethylxanthine] | 12 h | augmented GSIS to similar levels | 12 h | raised intracellular cAMP levels |  |  | 
5 | GLP-1: hormone secreted into the circulation by intestinal L-cells in response to food intake |  |  |  |  |  |  | half-life [3]: short half-life; G-protein pathway activation via GLP-1R (GLP-1R [5]): activation of both the Gαs and Gαq pathways
6 | CC[S+]([O-])c1nc(-c2cccc(OCc3ccccc3)c2)cc(C(F)(F)F)n1 (centres unmarked) [Compound B, 4-(3-(benzyloxy)phenyl)-2-(ethylsulfinyl)-6-(trifluoromethyl)-pyramidine] |  |  |  |  | significantly boosted GSIS | slightly increased GSIS | GSICP, 8 mM glucose preincubation (GLP-1R [6]): boosted GSCIP to a greater extent; insulin secretion (human islets): near-normal levels
